Results as given in patent US20250339399A1, “SUPRAMOLECULAR SELF-ASSEMBLY SYSTEM” (Beijing Creatron Institute of Pharmaceutical Research Co., …, priority 2022, published 2025).

Key:
[1] = Binary supramolecular self-assembly systems of polymer and target: guest concentration over incubation time (Comparative Example 2); format: physicochemical
Protocol: Experiments were conducted according to the steps in Comparative Example 1, and quantitative analysis was carried out using the analytical method for each target to investigate the regulation ability […] stacking.

[2] = Guest molecule concentration after incubation in initial medium without polymer (Comparative Example 1); format: physicochemical; settings: 37° C.
Protocol: pH 2.0 hydrochloric acid, pH 4.5 acetate, and pH 6.5, pH 6.8, or pH 7.4 phosphate buffer solutions were prepared. The selection of each initial medium followed the principle that the solubility in the initial medium of the selected targets (or active ingredients) should low enough, but should meet the detection sensitivity and accuracy requirements of the corresponding analytical methods. Each buffer as initial media was placed in a 50 ml test tube with a stopper, shaken in a constant temperature air shaker at 37° C.±0.5° C., with an amplitude of 200 rpm, and incubated for 1 hour. […] Samples were taken at 0.5 h, 3 h and 6 h after incubation, centrifuged at 37° C., 13000 rpm for 5 minutes, and the supernatant was diluted at least 10 times with the mobile phase under the target analyte analytical method, filtered, the initial filtrate was discarded, and the continued filtrate was used as the test solution for injection analysis. The corresponding HPLC method under each target object item in Table 8 was used to determine the content of each target substance. When the solubility of the target in the initial medium is below the quantitative limit of the analytical method, a small amount of surfactant, such as sodium dodecyl sulfate (SDS), Tween20, or Tween80, can be added appropriately.
The above targets were incubated at 37° C.±0.5° C. for different time in an initial medium without any polymer. Each solid target formed by molecular stacking was removed by centrifugation, and the supernatant was analyzed using the HPLC method under each target item (see Table 8). The theoretical addition concentration of each target when its supramolecular self-assembly system was built was determined by its maximum dose in clinical use.

[3] = cited from earlier work
[4] = binary system with 0.5% polymer 101, incubation 0.5 h
[5] = binary system with 0.5% polymer 101, incubation 3 h
[6] = binary system with 0.5% polymer 101, incubation 6 h
[7] = binary system with 0.5% polymer 102, incubation 0.5 h
[8] = binary system with 0.5% polymer 102, incubation 3 h
[9] = binary system with 0.5% polymer 102, incubation 6 h
[10] = binary system with 0.5% polymer 103, incubation 0.5 h
[11] = binary system with 0.5% polymer 103, incubation 3 h
[12] = binary system with 0.5% polymer 103, incubation 6 h
[13] = binary system with 0.5% polymer 106, incubation 0.5 h
[14] = binary system with 0.5% polymer 106, incubation 3 h
[15] = binary system with 0.5% polymer 106, incubation 6 h
[16] = binary system with 0.5% polymer 107, incubation 0.5 h
[17] = binary system with 0.5% polymer 107, incubation 3 h
[18] = binary system with 0.5% polymer 107, incubation 6 h
[19] = binary system with 0.5% polymer 110, incubation 0.5 h
[20] = binary system with 0.5% polymer 110, incubation 3 h
[21] = binary system with 0.5% polymer 110, incubation 6 h

## CC#CC(=O)N1CCC[C@H]1c1nc(-c2ccc(C(=O)Nc3ccccn3)cc2)c2c(N)nccn12 [Acalabrutinib, acalabrutinib]
[1]; [4]
  Concentration of the target in the solution measured after different incubation time: 209.1 µg/mL
[1]; [5]
  Concentration of the target in the solution measured after different incubation time: 193.9 µg/mL
[1]; [6]
  Concentration of the target in the solution measured after different incubation time: 197.8 µg/mL
[1]; [7]
  Concentration of the target in the solution measured after different incubation time: 566.6 µg/mL
[1]; [8]
  Concentration of the target in the solution measured after different incubation time: 580.9 µg/mL
[1]; [9]
  Concentration of the target in the solution measured after different incubation time: 608.2 µg/mL
[1]; [10]
  Concentration of the target in the solution measured after different incubation time: 292.1 µg/mL
[1]; [11]
  Concentration of the target in the solution measured after different incubation time: 321.4 µg/mL
[1]; [12]
  Concentration of the target in the solution measured after different incubation time: 246.4 µg/mL
[1]; [13]
  Concentration of the target in the solution measured after different incubation time: 184.1 µg/mL
[1]; [14]
  Concentration of the target in the solution measured after different incubation time: 124.3 µg/mL
[1]; [15]
  Concentration of the target in the solution measured after different incubation time: 159.4 µg/mL
[1]; [16]
  Concentration of the target in the solution measured after different incubation time: 497.8 µg/mL
[1]; [17]
  Concentration of the target in the solution measured after different incubation time: 171.6 µg/mL
[1]; [18]
  Concentration of the target in the solution measured after different incubation time: 167.1 µg/mL
[1]; [19]
  Concentration of the target in the solution measured after different incubation time: 427.6 µg/mL
[1]; [20]
  Concentration of the target in the solution measured after different incubation time: 429.7 µg/mL
[1]; [21]
  Concentration of the target in the solution measured after different incubation time: 460.8 µg/mL
[2]; 0.5 h, pH 7.4 phosphate buffer
  Concentration of guest molecule measured after different incubated time: 106.0 µg/mL
[2]; 3 h, pH 7.4 phosphate buffer
  Concentration of guest molecule measured after different incubated time: 87.6 µg/mL
[2]; 6 h, pH 7.4 phosphate buffer
  Concentration of guest molecule measured after different incubated time: 87.6 µg/mL
[3]
  LogD7.4 or Log P: 2.56

## CC1=C(/C=C/C(C)=C/C=C/C(C)=C/CO)C(C)(C)CCC1 [Vitamin A, vitamin A]
[1]; [7]
  Concentration of the target in the solution measured after different incubation time: 80.5 µg/mL
[1]; [8]
  Concentration of the target in the solution measured after different incubation time: 80.2 µg/mL
[1]; [9]
  Concentration of the target in the solution measured after different incubation time: 75.7 µg/mL
[2]; 0.5 h, pH 6.8 phosphate buffer
  Concentration of guest molecule measured after different incubated time: 57.2 µg/mL
[2]; 3 h, pH 6.8 phosphate buffer
  Concentration of guest molecule measured after different incubated time: 51.1 µg/mL
[2]; 6 h, pH 6.8 phosphate buffer
  Concentration of guest molecule measured after different incubated time: 53.0 µg/mL
[3]
  LogD7.4 or Log P: 4.69

## CC(C)OC(=O)CCC/C=C\C[C@@H]1[C@@H](/C=C/C(F)(F)COc2ccccc2)[C@H](O)C[C@@H]1O [Tafluprost, tafluprost]
[1]; [4]
  Concentration of the target in the solution measured after different incubation time: 57.6 µg/mL
[1]; [5]
  Concentration of the target in the solution measured after different incubation time: 44.8 µg/mL
[1]; [6]
  Concentration of the target in the solution measured after different incubation time: 23.1 µg/mL
[1]; [7]
  Concentration of the target in the solution measured after different incubation time: 52.9 µg/mL
[1]; [8]
  Concentration of the target in the solution measured after different incubation time: 66.1 µg/mL
[1]; [9]
  Concentration of the target in the solution measured after different incubation time: 67.3 µg/mL
[1]; [10]
  Concentration of the target in the solution measured after different incubation time: 14.6 µg/mL
[1]; [11]
  Concentration of the target in the solution measured after different incubation time: 23.1 µg/mL
[1]; [12]
  Concentration of the target in the solution measured after different incubation time: 27.4 µg/mL
[1]; binary system with 0.5% polymer 104, incubation 0.5 h
  Concentration of the target in the solution measured after different incubation time: 26.7 µg/mL
[1]; binary system with 0.5% polymer 104, incubation 3 h
  Concentration of the target in the solution measured after different incubation time: 24.2 µg/mL
[1]; binary system with 0.5% polymer 104, incubation 6 h
  Concentration of the target in the solution measured after different incubation time: 17.3 µg/mL
[1]; [16]
  Concentration of the target in the solution measured after different incubation time: 34.5 µg/mL
[1]; [17]
  Concentration of the target in the solution measured after different incubation time: 36.8 µg/mL
[1]; [18]
  Concentration of the target in the solution measured after different incubation time: 35.2 µg/mL
[1]; binary: 0.25% 102H, 6 h
  Concentration of guest molecule in solution: 67.3 µg/mL
[2]; 0.5 h, pH 7.4 phosphate buffer
  Concentration of guest molecule measured after different incubated time: 18.6 µg/mL
[2]; 3 h, pH 7.4 phosphate buffer
  Concentration of guest molecule measured after different incubated time: 9.3 µg/mL
[2]; 6 h, pH 7.4 phosphate buffer
  Concentration of guest molecule measured after different incubated time: 6.8 µg/mL
[3]
  LogD7.4 or Log P: 4.25
[3]; prost derivatives, Table 31 (relevant information)
  Log P: Log P:4.29 D-H: 2 R-H:4

## O=C(O)[C@H]1O[C@@H](Oc2cc3oc(-c4ccc(O)cc4)cc(=O)c3c(O)c2O)[C@H](O)[C@@H](O)[C@@H]1O [Scutellarin, scutellarin]
[1]; [4]
  Concentration of the target in the solution measured after different incubation time: 210.4 µg/mL
[1]; [5]
  Concentration of the target in the solution measured after different incubation time: 125.2 µg/mL
[1]; [6]
  Concentration of the target in the solution measured after different incubation time: 110.2 µg/mL
[1]; [7]
  Concentration of the target in the solution measured after different incubation time: 122.5 µg/mL
[1]; [8]
  Concentration of the target in the solution measured after different incubation time: 102.0 µg/mL
[1]; [9]
  Concentration of the target in the solution measured after different incubation time: 102.2 µg/mL
[1]; [10]
  Concentration of the target in the solution measured after different incubation time: 40.4 µg/mL
[1]; [11]
  Concentration of the target in the solution measured after different incubation time: 42.8 µg/mL
[1]; [12]
  Concentration of the target in the solution measured after different incubation time: 42.8 µg/mL
[1]; [13]
  Concentration of the target in the solution measured after different incubation time: 57.4 µg/mL
[1]; [14]
  Concentration of the target in the solution measured after different incubation time: 60.8 µg/mL
[1]; [15]
  Concentration of the target in the solution measured after different incubation time: 54.3 µg/mL
[1]; [16]
  Concentration of the target in the solution measured after different incubation time: 61.7 µg/mL
[1]; [17]
  Concentration of the target in the solution measured after different incubation time: 41.7 µg/mL
[1]; [18]
  Concentration of the target in the solution measured after different incubation time: 43.1 µg/mL
[1]; [19]
  Concentration of the target in the solution measured after different incubation time: 95.9 µg/mL
[1]; [20]
  Concentration of the target in the solution measured after different incubation time: 87.3 µg/mL
[1]; [21]
  Concentration of the target in the solution measured after different incubation time: 78.3 µg/mL
[2]; 0.5 h, pH 6.8 phosphate buffer
  Concentration of guest molecule measured after different incubated time: 45.3 µg/mL
[2]; 3 h, pH 6.8 phosphate buffer
  Concentration of guest molecule measured after different incubated time: 41.7 µg/mL
[2]; 6 h, pH 6.8 phosphate buffer
  Concentration of guest molecule measured after different incubated time: 43.1 µg/mL
[3]
  LogD7.4 or Log P: 0.80

## COC1=CC(=O)C[C@@H](C)[C@]12Oc1c(Cl)c(OC)cc(OC)c1C2=O [Griseofulvin, griseofulvin]
[1]; [4]
  Concentration of the target in the solution measured after different incubation time: 221.0 µg/mL
[1]; [5]
  Concentration of the target in the solution measured after different incubation time: 187.9 µg/mL
[1]; [6]
  Concentration of the target in the solution measured after different incubation time: 171.7 µg/mL
[1]; [7]
  Concentration of the target in the solution measured after different incubation time: 24.1 µg/mL
[1]; [8]
  Concentration of the target in the solution measured after different incubation time: 23.2 µg/mL
[1]; [9]
  Concentration of the target in the solution measured after different incubation time: 28.6 µg/mL
[1]; [10]
  Concentration of the target in the solution measured after different incubation time: 51.8 µg/mL
[1]; [11]
  Concentration of the target in the solution measured after different incubation time: 39.8 µg/mL
[1]; [12]
  Concentration of the target in the solution measured after different incubation time: 39.1 µg/mL
[1]; [13]
  Concentration of the target in the solution measured after different incubation time: 67.9 µg/mL
[1]; [14]
  Concentration of the target in the solution measured after different incubation time: 62.8 µg/mL
[1]; [15]
  Concentration of the target in the solution measured after different incubation time: 60.7 µg/mL
[1]; [16]
  Concentration of the target in the solution measured after different incubation time: 109.2 µg/mL
[1]; [17]
  Concentration of the target in the solution measured after different incubation time: 93.9 µg/mL
[1]; [18]
  Concentration of the target in the solution measured after different incubation time: 88.6 µg/mL
[1]; [19]
  Concentration of the target in the solution measured after different incubation time: 27.1 µg/mL
[1]; [20]
  Concentration of the target in the solution measured after different incubation time: 23.6 µg/mL
[1]; [21]
  Concentration of the target in the solution measured after different incubation time: 26.3 µg/mL
[2]; 0.5 h, 0.1% SDS in pH 6.8 phosphate buffer
  Concentration of guest molecule measured after different incubated time: 35.6 µg/mL
[2]; 3 h, 0.1% SDS in pH 6.8 phosphate buffer
  Concentration of guest molecule measured after different incubated time: 27.4 µg/mL
[2]; 6 h, 0.1% SDS in pH 6.8 phosphate buffer
  Concentration of guest molecule measured after different incubated time: 24.1 µg/mL
[3]
  LogD7.4 or Log P: 2.17
